Laboratory results as given in patent US10435369B2, “Tricyclic sulfones as ROR gamma modulators” (BRISTOL-MYERS SQUIBB COMPANY, priority 2016, dated 2019).

biological target: RORγ receptor (Homo sapiens, UniProt P51449); assay: RORγ Gal4 reporter assay (Gal4-luciferase, inverse agonist activity); assay type: cell-based; conditions: not given
Experimental: General RORγ Gal4 Reporter Assay
IC50 values were determined.

RORγ receptor, sequence (P51449 269-508): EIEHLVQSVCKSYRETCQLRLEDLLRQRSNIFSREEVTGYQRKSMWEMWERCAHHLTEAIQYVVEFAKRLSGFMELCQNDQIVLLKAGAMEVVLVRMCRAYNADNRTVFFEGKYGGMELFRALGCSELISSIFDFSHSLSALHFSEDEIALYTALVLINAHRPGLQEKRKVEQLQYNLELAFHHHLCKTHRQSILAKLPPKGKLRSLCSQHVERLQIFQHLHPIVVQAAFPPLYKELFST

First: CNC(=O)CN[C@@H]1CC[C@@]2(S(=O)(=O)c3ccc(F)cc3)c3ccc(C(F)(C(F)(F)F)C(F)(F)F)cc3CC[C@@H]12 [Example 208, 2-(((3R,3 aS,9bS)-9b-((4-fluorophenyl)sulfonyl)-7-(perfluoropropan-2-yl)-2,3,3a,4,5,9b-hexahydro-1H-cyclopenta[a]naphthalen-3-yl)amino)-N-methylacetamide]
Second: O=C(N[C@@H]1CC[C@@]2(S(=O)(=O)c3ccc(F)cc3)c3ccc(C(F)(C(F)(F)F)C(F)(F)F)cc3CC[C@@H]12)C1=CCS(=O)(=O)CC1 [Example 299, N-((3R,3aS,9bS)-9b-((4-fluorophenyl)sulfonyl)-7-(perfluoropropan-2-yl)-2,3,3a,4,5,9b-hexahydro-1H-cyclopenta[a]naphthalen-3-yl)-3,6-dihydro-2H-thiopyran-4-carboxamide 1,1-dioxide]
The IC50 of the first is 3.2-fold higher: 16 nM for the first, 5 nM for the second.

In the case of `[2H]C([2H])([2H])C(=O)N1CC(O)(CC(=O)N[C@@H]2CC[C@@]3(S(=O)(=O)c4ccc(F)cc4)c4ccc(C(F)(C(F)(F)F)C(F)(F)F)cc4CC[C@@H]23)C1` [Example 231, 2-(1-(acetyl-d3)-3-hydroxyazetidin-3-yl)-N-((3R,3aS,9bS)-9b-((4-fluorophenyl)sulfonyl)-7-(perfluoropropan-2-yl)-2,3,3a,4,5,9b-hexahydro-1H-cyclopenta[a]naphthalen-3-yl)acetamide], the IC50 is reported as 65 nM.

same assay, conditions: Jurkat cells stably over-expressing hRORγ; Gal4-luciferase reporter; overnight incubation; read-out: RORγ Gal4, IC50

`CNC(=O)CN(CC(=O)NC)[C@@H]1CC[C@@]2(S(=O)(=O)c3ccc(F)cc3)c3ccc(C(F)(C(F)(F)F)C(F)(F)F)cc3CC[C@@H]12` [Example 209, 2,2′-(((3R,3aS,9bS)-9b-((4-fluorophenyl)sulfonyl)-7-(perfluoropropan-2-yl)-2,3,3a,4,5,9b-hexahydro-1H-cyclopenta[a]naphthalen-3-yl)azanediyl)bis(N-methylacetamide)] and `CN(C)[C@@H]1CC[C@@]2(S(=O)(=O)c3ccc(F)cc3)c3ccc(C(F)(C(F)(F)F)C(F)(F)F)cc3CC[C@@H]12` [Example 212] are within 1.5-fold of each other in IC50: 166 nM for the first, 160 nM for the second.

Compared with `CC(C)(O)CC(=O)N[C@@H]1CC[C@@]2(S(=O)(=O)c3ccc(F)cc3)c3ccc(C(F)(C(F)(F)F)C(F)(F)F)cc3NC[C@@H]12` [Example 221], `CC(C)(O)CN1C(=O)CCN1C(=O)N[C@@H]1CC[C@@]2(S(=O)(=O)c3ccc(F)cc3)c3ccc(C(F)(C(F)(F)F)C(F)(F)F)cc3CC[C@@H]12` [Example 229, N-((3R,3aS,9bS)-9b-((4-fluorophenyl)sulfonyl)-7-(perfluoropropan-2-yl)-2,3,3a,4,59b-hexahydro-1H-cyclopenta[a]naphthalen-3-yl)-2-(2-hydroxy-2-methylpropyl)-3-oxopyrazolidin-1-carboxamide] is 9-fold lower in IC50: 45 nM for the first, 5 nM for the second. The second is the more potent here.

Compared with `O=C1OCCN1[C@@H]1CC[C@@]2(S(=O)(=O)c3ccc(F)cc3)c3ccc(C(F)(C(F)(F)F)C(F)(F)F)cc3CC[C@@H]12` [Example 240, 3-((3R,3aS,9bS)-9b-((4-fluorophenyl)sulfonyl)-7-(perfluoropropan-2-yl)-2,3,3a,4,5,9b-hexahydro-1H-cyclopenta[a]naphthalen-3-yl)oxazolidin-2-one], `CC(NC(=O)[C@H](C)N)[C@@H]1CC[C@@]2(S(=O)(=O)c3ccc(F)cc3)c3ccc(C(F)(C(F)(F)F)C(F)(F)F)cc3CC[C@@H]12` (stereo partly shown) [Example 271] is 5-fold higher in IC50: 9 nM for the first, 45 nM for the second.

First: O=C(CO)N1CCC(O)(C(=O)N[C@@H]2CC[C@@]3(S(=O)(=O)c4ccc(F)cc4)c4ccc(C(F)(C(F)(F)F)C(F)(F)F)cc4CC[C@@H]23)CC1 [Example 256]
Second: O=C(N[C@@H]1CC[C@@]2(S(=O)(=O)c3ccc(F)cc3)c3ccc(C(F)(C(F)(F)F)C(F)(F)F)cc3CC[C@@H]12)C1(F)CCS(=O)(=O)CC1 [Example 298, 4-fluoro-N-((3R,3aS,9bS)-9b-((4-fluorophenyl)sulfonyl)-7-(perfluoropropan-2-yl)-2,3,3a,4,5,9b-hexahydro-1H-cyclopenta[a]naphthalen-3-yl)tetrahydro-2H-thiopyran-4-carboxamide 1,1-dioxide]
The IC50 of the first is 1.8-fold lower: 4 nM for the first, 7 nM for the second.

`CC(NC(=O)c1c[nH]cn1)[C@@H]1CC[C@@]2(S(=O)(=O)c3ccc(F)cc3)c3ccc(C(F)(C(F)(F)F)C(F)(F)F)cc3CC[C@@H]12` (stereo partly shown) [Example 257] and `CC(NC(=O)c1ccncn1)[C@@H]1CC[C@@]2(S(=O)(=O)c3ccc(F)cc3)c3ccc(C(F)(C(F)(F)F)C(F)(F)F)cc3CC[C@@H]12` (stereo partly shown) [Example 261] are within 1.5-fold of each other in IC50: 27 nM for the first, 34 nM for the second.

Compared with `CC(NC(=O)c1ccncn1)[C@@H]1CC[C@@]2(S(=O)(=O)c3ccc(F)cc3)c3ccc(C(F)(C(F)(F)F)C(F)(F)F)cc3CC[C@@H]12` (stereo partly shown) [Example 262], `CC(NC(=O)c1ccncc1)[C@@H]1CC[C@@]2(S(=O)(=O)c3ccc(F)cc3)c3ccc(C(F)(C(F)(F)F)C(F)(F)F)cc3CC[C@@H]12` (stereo partly shown) [Example 263] is 4-fold lower in IC50: 87 nM for the first, 22 nM for the second. The second is the more potent here.

Compared with `CC(NC(=O)c1ccncc1)[C@@H]1CC[C@@]2(S(=O)(=O)c3ccc(F)cc3)c3ccc(C(F)(C(F)(F)F)C(F)(F)F)cc3CC[C@@H]12` (stereo partly shown) [Example 264], `CC(NC(=O)[C@@H]1C[C@@H](F)C(=O)N1)[C@@H]1CC[C@@]2(S(=O)(=O)c3ccc(F)cc3)c3ccc(C(F)(C(F)(F)F)C(F)(F)F)cc3CC[C@@H]12` (stereo partly shown) [Example 267] is 5.5-fold lower in IC50: 82 nM for the first, 15 nM for the second.

`CC(NC(=O)[C@@H]1C[C@@H](F)C(=O)N1)[C@@H]1CC[C@@]2(S(=O)(=O)c3ccc(F)cc3)c3ccc(C(F)(C(F)(F)F)C(F)(F)F)cc3CC[C@@H]12` (stereo partly shown) [Example 268] and `CC(NS(=O)(=O)c1cnn(C)c1)[C@@H]1CC[C@@]2(S(=O)(=O)c3ccc(F)cc3)c3ccc(C(F)(C(F)(F)F)C(F)(F)F)cc3CC[C@@H]12` (stereo partly drawn) [Example 272, N-(1-((3R,3aS,9bS)-9b-((4-fluorophenyl)sulfonyl)-7-(perfluoropropan-2-yl)-2,3,3a,4,5,9b-hexahydro-1H-cyclopenta[a]naphthalen-3-yl)ethyl)-1-methyl-1H-pyrazole-4-sulfonamide] are within 1.5-fold of each other in IC50: 21 nM for the first, 27 nM for the second.

Compared with `CC(NS(=O)(=O)c1cnn(C)c1)[C@@H]1CC[C@@]2(S(=O)(=O)c3ccc(F)cc3)c3ccc(C(F)(C(F)(F)F)C(F)(F)F)cc3CC[C@@H]12` (stereo partly shown) [Example 273], `CC(NS(=O)(=O)c1nc[nH]n1)[C@@H]1CC[C@@]2(S(=O)(=O)c3ccc(F)cc3)c3ccc(C(F)(C(F)(F)F)C(F)(F)F)cc3CC[C@@H]12` (stereo partly shown) [Example 274] is 2.4-fold higher in IC50: 26 nM for the first, 62 nM for the second.

`CC(NS(=O)(=O)c1nc[nH]n1)[C@@H]1CC[C@@]2(S(=O)(=O)c3ccc(F)cc3)c3ccc(C(F)(C(F)(F)F)C(F)(F)F)cc3CC[C@@H]12` (stereo partly shown) [Example 275] and `CS(=O)(=O)N[C@H]1C[C@H](NC(=O)[C@@H]2CC[C@@]3(S(=O)(=O)c4ccc(F)cc4)c4ccc(C(F)(C(F)(F)F)C(F)(F)F)cc4CC[C@@H]23)C1` [Example 276] are within 1.5-fold of each other in IC50: 65 nM for the first, 52 nM for the second.

Compared with `CS(=O)(=O)N1CCC(CNC(=O)[C@@H]2CC[C@@]3(S(=O)(=O)c4ccc(F)cc4)c4ccc(C(F)(C(F)(F)F)C(F)(F)F)cc4CC[C@@H]23)C1` (stereo partly shown) [Example 277], `CS(=O)(=O)N1CC(O)(CNC(=O)[C@@H]2CC[C@@]3(S(=O)(=O)c4ccc(F)cc4)c4ccc(C(F)(C(F)(F)F)C(F)(F)F)cc4CC[C@@H]23)C1` [Example 279] is 3.2-fold higher in IC50: 6 nM for the first, 19 nM for the second. The first is the more potent here.

Going from `CS(=O)(=O)N1CCC(CNC(=O)[C@@H]2CC[C@@]3(S(=O)(=O)c4ccc(F)cc4)c4ccc(C(F)(C(F)(F)F)C(F)(F)F)cc4CC[C@@H]23)C1` (stereo partly shown) [Example 278] to `NS(=O)(=O)N[C@H]1C[C@@H](NC(=O)[C@@H]2CC[C@@]3(S(=O)(=O)c4ccc(F)cc4)c4ccc(C(F)(C(F)(F)F)C(F)(F)F)cc4CC[C@@H]23)C1` [Example 280, (3R,3aS,9bS)-9b-((4-fluorophenyl)sulfonyl)-7-(perfluoropropan-2-yl)-N-((1s,3S)-3-(sulfamoylamino)cyclobutyl)-2,3,3a,4,5,9b-hexahydro-1H-cyclopenta[a]naphthalene-3-carboxamide], the IC50 rises from 7 nM to 22 nM (3.1-fold). The first is the more potent here.

`NS(=O)(=O)N[C@H]1C[C@@H](NC(=O)[C@@H]2CC[C@@]3(S(=O)(=O)c4ccc(F)cc4)c4ccc(C(F)(C(F)(F)F)C(F)(F)F)cc4CC[C@@H]23)C1` [Example 281] showed an IC50 of 58 nM.
